# Numbered stars: 1 amine (or outer) side, 2 acyl side, 3 side chain; on linkers, the order of the positions; unused ones are H or OH. Square brackets hold non-standard residues; d marks the D form. Ends that are not written are not given here. Peptide text beside a SMILES is read from it. * marks the point of attachment. X4 = O=C(O)[C@H]1OC(OCCOCCN*)[C@H](O)[C@@H](O)[C@@H]1O; Suc = O=C(CCC(=O)[*:2])[*:1]
# What was measured:
# B16-BL6 melanoma cells = experiment: Experimental melanoma metastasis in lungs caused by injection of B16-BL6 melanoma cells; assay type: in vivo, C57BL/6 female mice
# Experimental: The tumor metastasis inhibitory activities of the peptide derivatives of the present invention were examined as follows.
# Each of the following peptide derivatives according to the present invention, Compounds 1 to 13, 15, 19 to 22, 25, 32, 36, 37, 44, 47, 50, 56-1, 56-4, 59, 65, 68, 70, 73, 76, 77, 80, 84, 87, 89, 90, 94, 96, 99, 101, 103,106, 112, 114, 118 and 121 was mixed with B16-BL6 melanoma cells having a potent metastatic tendency in PBS so that 0.2 ml of the mixture contained 3000, 1000 or 500 μg of the peptide derivative and 5×10^6 of B16-BL6 melanoma cells. Then, 0.2 ml of each mixture was intravenously administered to each individual of a group of C57BL/6 female mice consisting of 5 mice. Fourteen days after the administration, the number of melanoma cell colony in lungs was determined and compared with that of the control mice, which were administered with PBS.
# (§1) For comparison, the peptide fragments known to have tumor metastasis inhibition activity, Arg--Gly--Asp--Ser (SEQ ID NO:16) (Comparison A), Gly--Arg--Gly--Asp--Ser (SEQ ID NO:17) (Comparison B) and (Arg--Gly--Asp)n(n=5) (SEQ ID NO:18) as well as Reference Polymer A were also administered to the mice in the same manner as above.
# [1] = test system: L5178Y ML25 T-lymphoma cells; experiment: Experimental T-lymphoma metastasis in liver and spleen caused by injection of L5178Y ML25 T-lymphoma cells; assay type: in vivo, CDF1 (BALB/c×DBA/2) female mice; conditions: dose 1000 μg mixed with T-lymphoma cells, i.v., 14 days after; for Weight (g): Average ± SD Spleen: PBS control 0.28 ± 0.03, no tumor cells 0.08 ± 0; for Weight (g): Average ± SD Liver: PBS control 4.21 ± 0.49, no tumor cells 1.09 ± 0.11
# Experimental: Separately, each of the following peptide derivatives of the present invention, Compound 1, 2, 8, 12, 20, 47, 56, 59, 67, 73 and 85, was mixed with L5178Y ML25 T-lymphoma cells in PBS so that 0.2 ml of the mixture contained 3000 or 1000 μg of the peptide derivative and 4×10^4 of the T-lymphoma cells. Then, 0.2 ml of each mixture was intravenously administered to each individual of a group of CDF1 (BALB/c×DBA/2) female mice consisting of 5 mice. Fourteen days after the administration, the weights of the livers and the spleens of the mice were determined and compared with those of the control mice.
# as §1
# [2] = Experiment 7, dose 500 μg, PBS control 85 ± 20
# [3] = Experiment 3, dose 500 μg, lung colonies 14 days after, PBS control 145 ± 30
# [4] = Experiment 1, dose 3000 μg mixed with B16-BL6 cells, i.v., lung colonies 14 days after, PBS control 116 ± 27
# [5] = Experiment 4, dose 500 μg, PBS control 116 ± 19
# [6] = Experiment 6, dose 500 μg, PBS control 128 ± 24
# [7] = Experiment 2, dose 1000 μg mixed with B16-BL6 cells, i.v., lung colonies 14 days after, PBS control 84 ± 11
# [8] = Experiment 5, dose 1000 μg, PBS control 91 ± 33
compound,measurement,setting,value
Succinylated Chondroitin Sulfate Carrying --D--Arg--Phe--Asp--Ser [Compound 118],Number of Colony Average ± SD,B16-BL6 melanoma cells; [2],43 ± 8
6-O-Carboxymethyl-N-Acetylchitohexaose Carrying --Gly--Arg--Phe--Asp--Ser [Compound 96],Number of Colony Average ± SD,B16-BL6 melanoma cells; [2],9 ± 4
CC(C)C[C@@H](NC(=O)[C@H](CCCNC(=N)N)NC(=O)[C@H](CO)NC(=O)[C@H](CC(=O)O)NC(=O)[C@@H](CC(C)C)NC(=O)[C@H](CCCNC(=N)N)NC(=O)[C@H](CO)NC(=O)[C@H](CC(=O)O)NC(=O)[C@@H](CC(C)C)NC(=O)[C@H](CCCNC(=N)N)NC(=O)[C@H](CO)NC(=O)[C@H](CC(=O)O)NC(=O)[C@@H](CC(C)C)NC(=O)[C@@H](N)CCCNC(=N)N)C(=O)N[C@@H](CC(=O)O)C(=O)N[C@@H](CO)C(=O)O [Compound 37] (H-R[dL]DSR[dL]DSR[dL]DSR[dL]DS-OH),Number of Colony Average ± SD,B16-BL6 melanoma cells; [3],27 ± 11
GRLDS [Compound 15],Number of Colony Average ± SD,B16-BL6 melanoma cells; [4],43 ± 12
Iminodiacetic Acid-Tetracraboxylic Acid Derivative (β-Ala--Arg--Leu--Asp--Ser)4 [Compound 76],Number of Colony Average ± SD,B16-BL6 melanoma cells; [5],48 ± 5
Succinylated CM-Chitin Carrying --Gly--Arg--D--Leu--Asp--Ser [Compound 106],Number of Colony Average ± SD,B16-BL6 melanoma cells; [2],1 ± 1
Succinylated Pantaethylenehexaamine (β-Ala--Arg--Leu--Asp--Ser--NH--iPr)6 [Compound 77],Number of Colony Average ± SD,B16-BL6 melanoma cells; [5],41 ± 6
Succinylated Polyallylamine Carrying --(Asp--D--Arg--Phe--Asp--Ser)2 [Compound 103],Number of Colony Average ± SD,B16-BL6 melanoma cells; [2],24 ± 8
R[dL]DR[dL]DR[dL]DR[dL]DR[dL]DR[dL]DR[dL]DR[dL]DR[dL]DR[dL]DR[dL]DR[dL]DR[dL]DR[dL]DR[dL]DR[dL]DR[dL]DR[dL]DR[dL]DR[dL]D [Compound 44],Number of Colony Average ± SD,B16-BL6 melanoma cells; [3],66 ± 15
6-O-Sulfated-Carboxymethyl-N-Acetylchitooligosaccharide Carrying --Asp--Arg--D--Phe--Asp--Ser [Compound 101],Number of Colony Average ± SD,B16-BL6 melanoma cells; [2],13 ± 6
RLDSRLDSRLDSRLDS [Compound 36],Number of Colony Average ± SD,B16-BL6 melanoma cells; [3],46 ± 6
Sulfated CM-Chitin Carrying --Gly--D--Arg--Leu--Asp--Ser [Compound 114],Number of Colony Average ± SD,B16-BL6 melanoma cells; [2],21 ± 11
CC(C)C[C@H](NC(=O)[C@H](CCCNC(=N)N)NC(=O)CCC(=O)NCCOCCOC1O[C@H](C(=O)O)[C@@H](O)[C@H](O)[C@H]1O)C(=O)N[C@@H](CC(=O)O)C(=O)N[C@@H](CO)C(=O)O (some centres unmarked) [Compound 80] ({X4-Suc}-RLDS-OH),Number of Colony Average ± SD,B16-BL6 melanoma cells; [6],36 ± 7
C[C@@H](NC(=O)[C@@H](N)CCCNC(=N)N)C(=O)N[C@@H](CC(=O)O)C(=O)N[C@H](C(N)=O)[C@@H](C)O [Compound 10] (H-R[dA]DT-NH2),Number of Colony Average ± SD,B16-BL6 melanoma cells; [4],58 ± 15
"Tetrahydrofuran-2,3,4,5-Tetracarboxylic Acid (Arg--Leu--Asp--Ser)4 (RLDS; also: four copies on tetrahydrofuran-2,3,4,5-tetracarboxylic acid core) [Compound 73]",Number of Colony Average ± SD,B16-BL6 melanoma cells; [5],38 ± 7
same,Weight (g): Average ± SD Spleen,[1],0.15 ± 0.05 g
same,Weight (g): Average ± SD Liver,[1],1.95 ± 1.00 g
CC(=O)N[C@@H](CC(=O)O)C(=O)N[C@H](CCCNC(=N)N)C(=O)N[C@@H](CC(C)C)C(=O)N[C@@H](CC(=O)O)C(=O)N[C@@H](CO)C(=O)O [Compound 32] (Ac-D[dR]LDS-OH),Number of Colony Average ± SD,B16-BL6 melanoma cells; [7],24 ± 5
6-O-Sulfated-Carboxymethyl-N-Acetylchitooligosaccharide Carrying --Asp--Arg--D--Leu--Asp--Ser [Compound 99],Number of Colony Average ± SD,B16-BL6 melanoma cells; [2],3 ± 3
"N=C(N)NCCC[C@H](NC(=O)CN)C(=O)NCC(=O)N[C@@H](CC(=O)O)C(=O)N[C@@H](CO)C(=O)O [Comparison B, Gly--Arg--Gly--Asp--Ser]",Number of Colony Average ± SD,B16-BL6 melanoma cells; [4],50 ± 10
same,Number of Colony Average ± SD,B16-BL6 melanoma cells; [7],40 ± 10
same,Number of Colony Average ± SD,"B16-BL6 melanoma cells; Experiment 3, dose 1000 μg, PBS control 145 ± 30",89 ± 18
same,Number of Colony Average ± SD,"B16-BL6 melanoma cells; Experiment 4, dose 1000 μg, PBS control 116 ± 19",78 ± 8
same,Number of Colony Average ± SD,B16-BL6 melanoma cells; [8],49 ± 7
same,Number of Colony Average ± SD,"B16-BL6 melanoma cells; Experiment 6, dose 1000 μg, PBS control 128 ± 24",76 ± 6
same,Number of Colony Average ± SD,"B16-BL6 melanoma cells; Experiment 7, dose 1000 μg, PBS control 85 ± 20",50 ± 8
same,Weight (g): Average ± SD Spleen,[1],0.17 ± 0.03 g
same,Weight (g): Average ± SD Liver,[1],2.24 ± 0.46 g
Succinyl Derivative of Chondroitin Sulfate Carrying --(Arg--D--Leu--Asp--Ser)2 [Compound 121],Number of Colony Average ± SD,B16-BL6 melanoma cells; [2],45 ± 11
CC(C)C[C@H](NC(=O)[C@@H](N)CCCNC(=N)N)C(=O)N[C@@H](CC(=O)O)C(=O)N[C@@H](CO)C(N)=O [Compound 9] (H-RLDS-NH2),Number of Colony Average ± SD,B16-BL6 melanoma cells; [4],22 ± 10
(Arg--Gly--Asp)n(n=5) [Comparison C],Number of Colony Average ± SD,"B16-BL6 melanoma cells; Experiment 1, dose 1000 μg mixed with B16-BL6 cells, i.v., lung colonies 14 days after, PBS control 116 ± 27",40 ± 15
same,Number of Colony Average ± SD,B16-BL6 melanoma cells; [7],23 ± 9
same,Number of Colony Average ± SD,B16-BL6 melanoma cells; [3],68 ± 9
same,Number of Colony Average ± SD,B16-BL6 melanoma cells; [8],39 ± 11
same,Number of Colony Average ± SD,B16-BL6 melanoma cells; [6],57 ± 12
same,Number of Colony Average ± SD,B16-BL6 melanoma cells; [2],44 ± 16
6-O-Carboxymethyl-N-Acetylchitohexaose Carrying --Asp--Arg--Leu--Asp--Ser [Compound 94],Number of Colony Average ± SD,B16-BL6 melanoma cells; [2],14 ± 3
Succinylated CM-Chitin Carrying --(Arg--D--Leu--Asp--Ser)2 [Compound 112],Number of Colony Average ± SD,B16-BL6 melanoma cells; [2],14 ± 7
"N=C(N)NCCC[C@H](N)C(=O)NCC(=O)N[C@@H](CC(=O)O)C(=O)N[C@@H](CO)C(=O)O [Comparison A, Arg--Gly--Asp--Ser]",Number of Colony Average ± SD,B16-BL6 melanoma cells; [4],70 ± 8
same,Number of Colony Average ± SD,B16-BL6 melanoma cells; [7],62 ± 9
same,Number of Colony Average ± SD,"B16-BL6 melanoma cells; Experiment 3, dose 3000 μg, PBS control 145 ± 30",92 ± 14
same,Number of Colony Average ± SD,"B16-BL6 melanoma cells; Experiment 4, dose 3000 μg, PBS control 116 ± 19",74 ± 11
same,Number of Colony Average ± SD,"B16-BL6 melanoma cells; Experiment 5, dose 3000 μg, PBS control 91 ± 33",60 ± 4
same,Number of Colony Average ± SD,"B16-BL6 melanoma cells; Experiment 6, dose 3000 μg, PBS control 128 ± 24",88 ± 20
same,Number of Colony Average ± SD,"B16-BL6 melanoma cells; Experiment 7, dose 3000 μg, PBS control 85 ± 20",51 ± 6
same,Weight (g): Average ± SD Spleen,[1],0.22 ± 0.03 g
same,Weight (g): Average ± SD Liver,[1],3.67 ± 1.04 g

# From patent US5436221A, “Tumor metastasis inhibiting compounds and methods” (Fuji Photo Film Co., Ltd., priority 1991, dated 1995)
